# Results taken from article PMC10495264 (Nature Cell Biology, 2023).
# “And” between values parts separate entries of the source, which are not always exact repeats. Identical values can stand only once.
# Columns and labels:
# [1] = tested on: mTOR lysosomal localization; test: Co-localization of mTOR with LAMP2, confocal microscopy; assay type: cell-based, human; conditions: for mTOR/LAMP2 colocalization (Manders' coefficient), Mean: mean of pooled individual cells (ED Fig. 8d), DMSO mean 0.383214
# ERK1/2 = ERK1/2 phosphorylation immunoblot; assay type: cell-based, human; conditions: ED Fig. 5m; relative to DMSO
# Experimental: (§1) For standard SDS–PAGE and immunoblotting experiments, cells from a well of a 12-well plate were lysed in 250 μl of ice-cold Triton lysis buffer (50 mM Tris pH 7.5, 1% Triton X-100, 150 mM NaCl, 50 mM NaF, 2 mM Na-vanadate and 0.011 g ml^−1 β-glycerophosphate) supplemented with 1×PhosSTOP phosphatase inhibitors (cat. no. 4906837001, Roche) and 1×cOmplete protease inhibitors (cat. no. 11836153001, Roche) for 10 min on ice. The samples were clarified by centrifugation (20,000g, 15 min, 4 °C) and the supernatants were boiled in 1×SDS sample buffer (5×SDS sample buffer: 350 mM Tris–HCl pH 6.8, 30% glycerol, 600 mM DTT, 12.8% SDS and 0.12% bromophenol blue). The band intensities were quantified using the ImageJ software.
# (§2) Data in graphs are shown as the mean ± s.e.m. *P < 0.05, **P < 0.005. Source numerical data and unprocessed blots are provided. Source data
# mTORC1 [2] = test: mTORC1 activity in U2OS cells, immunoblot; assay type: cell-based, human; conditions: Fasnall 25 μM 30 min; cerulenin 50 μM 2 or 4 h
# mTORC1 [3] = test: mTORC1 activity in HEK293T cells (WT, AMPKα1/2 KO, DEPDC5 and RagA/B triple KO), p-S6K^T389/S6K immunoblot; assay type: cell-based, human
# Experimental: Source numerical data and unprocessed blots are provided. Source data
# as §1
# Data in graphs are shown as the mean ± s.e.m. *P < 0.05, **P < 0.005, ***P < 0.0005. Source numerical data and unprocessed blots are provided. Source data
# mTORC1 [4] = test: mTORC1 activity in HEK293FT cells (WT and knockout lines), phosphorylation of S6K, 4E-BP1, Grb10, TFEB by immunoblot; assay type: cell-based, human
# Experimental: Data represent the median fluorescence intensity of OPP Alexa Fluor 488; n = 6 biological replicates from two independent experiments. b,c,e,g,i,k,l, Data are the mean ± s.e.m. *P < 0.05, **P < 0.005, ***P < 0.0005. […] Source numerical data and unprocessed blots are provided. Source data
# (§3) Amino-acid-starvation experiments were carried out as described before[42],[43]. […] For the lipid depletion experiments, cells were cultured in medium containing 10% charcoal-stripped FBS (A3382101, Thermo Fisher Scientific), instead of full FBS, for 24 h before treatments with FASN inhibitors were performed. For FA supplementation, each FA was first conjugated to 10% FA-free BSA (fraction V; cat. no. 10735086001, Roche) for 1 h at 50 °C in a 50:50 volumetric ratio. The BSA-conjugated C16:0, C16:1, C18:1 and C18:2 FAs (100 μM) were then added to the media both 16 h previous to and at the start of the treatment with FASN inhibitors.
# as §1
# AMPK = AMPK and ACC1 phosphorylation immunoblot; assay type: cell-based, human; conditions: relative to DMSO
# Experimental: as §1, §2
# mTORC1 [5] = test: mTORC1 activity in mouse embryonic fibroblasts (MEFs), p-S6K^T389/S6K immunoblot; assay type: cell-based; conditions: for p-S6K(T389)/S6K, Mean: ED Fig. 4e, relative to DMSO
# mTORC1 [6] = target: T1, mTORC1 (Homo sapiens, UniProt P42345); test: mTORC1 complex stability/composition, mTOR co-immunoprecipitation of Raptor and mLST8; conditions: cells treated with cerulenin (4 h)
# T1 construct: endogenous mTORC1 complexes were purified from HEK293FT cells; endogenous in cells; host or cells: HEK293FT (immunoprecipitation of endogenous mTOR); the 4E-BP1 substrate was made in E. coli BL21 RP
# Experimental: For the mammalian endogenous protein co-immunoprecipitation experiments, cells of a near-confluent 10-cm dish were lysed in CHAPS IP buffer (50 mM Tris pH 7.5, 0.3% CHAPS detergent, 150 mM NaCl, 50 mM NaF, 2 mM Na-vanadate and 0.011 g ml^−1 β-glycerophosphate) supplemented with 1×PhosSTOP phosphatase inhibitors and 1×EDTA-free cOmplete protease inhibitors (11873580001, Roche) for 10 min on ice. The samples were clarified by centrifugation (20,000g, 15 min, 4 °C) and the supernatants were subjected to immunoprecipitation by the addition of 3 μl of each antibody, incubation at 4 °C with rotation for 3 h, followed by incubation (4 °C with rotation) with 30 μl of a pre-washed Protein A agarose bead slurry (cat. no. 11134515001, Roche) for an additional hour. The beads were then washed four times with CHAPS IP wash buffer (50 mM Tris pH 7.5, 0.3% CHAPS detergent, 150 mM NaCl and 50 mM NaF) and boiled in 1×SDS loading buffer. A portion of the samples was kept aside as the input before the addition of antibodies. The samples were analysed by SDS–PAGE and the presence of co-immunoprecipitated proteins was detected by immunoblotting with the appropriate specific antibodies.
# To test whether Mal-CoA influences mTORC1 complex stability/composition, 1 mM Mal-CoA lithium salt solution was added to the lysates before the immunoprecipitation of mTOR, as described earlier. […]
# mTORC2 = mTORC2 activity in HEK293FT cells, p-AKT^S473/AKT immunoblot; assay type: cell-based, human
# Experimental: Phosphorylation of Ypk1 was used as the TORC2 readout. Phosphorylation of Snf1 was used as the AMPK activation readout. Total Snf1 was detected with an antibody to a histidine (His) stretch in Snf1. […] Source numerical data and unprocessed blots are provided. Source data
# as §3, §1
# [7] = Fasnall 25 μM 30 min, cerulenin 50 μM 4 h
smiles,measurement,setting,value
C/C=C/C/C=C/CCC(=O)[C@H]1O[C@H]1C(N)=O [cerulenin],mTOR/LAMP2 colocalization (Manders' coefficient),"[1]; Ceru 2h, Replicate 1, individual cells (ED Fig. 8d)",0.444 and 0.38 and 0.427 and 0.715 and 0.517 and 0.116 and 0.414 and 0.188 and 0.399 and 0.209 and 0.241 and 0.28 and 0.349 and 0.265 and 0.345 and 0.315 and 0.445 and 0.603 and 0.407 and 0.223 and 0.37 and 0.271 and 0.185
same,mTOR/LAMP2 colocalization (Manders' coefficient),"[1]; Ceru 2h, Replicate 3, individual cells (ED Fig. 8d)",0.327 and 0.378 and 0.177 and 0.225 and 0.217 and 0.171 and 0.169 and 0.316 and 0.307 and 0.469 and 0.189 and 0.266 and 0.237 and 0.271 and 0.179 and 0.175 and 0.173 and 0.339
same,"mTOR/LAMP2 colocalization (Manders' coefficient), Mean",[1]; Ceru 2h,0.3276
same,mTOR/LAMP2 colocalization (Manders' coefficient),"[1]; Ceru 4h, Replicate 1, individual cells (ED Fig. 8d)",0.295 and 0.311 and 0.327 and 0.333 and 0.217 and 0.408 and 0.17 and 0.428 and 0.395 and 0.227 and 0.135 and 0.322 and 0.371 and 0.272 and 0.219 and 0.26 and 0.303
same,mTOR/LAMP2 colocalization (Manders' coefficient),"[1]; Ceru 4h, Replicate 3, individual cells (ED Fig. 8d)",0.327 and 0.378 and 0.177 and 0.225 and 0.217 and 0.171 and 0.169 and 0.316 and 0.307 and 0.469 and 0.189 and 0.266 and 0.237 and 0.271 and 0.179 and 0.175 and 0.173 and 0.339
same,"mTOR/LAMP2 colocalization (Manders' coefficient), Mean",[1]; Ceru 4h,0.2619
same,mTOR localization at lysosomes (co-localization with LAMP2),"[1]; HEK293FT, 25 μM Fasnall or 50 μM cerulenin",significant dissociation
same,"p-ERK(T202/Y204)/ERK, Mean",ERK1/2,1.697
same,mTORC1 activity in U2OS,mTORC1 [2],downregulates
same,"p-S6K(T389)/S6K, Mean","mTORC1 [3]; ED Fig. 7c, AMPKa1/2 KO, 2h, relative to AMPKa1/2 KO DMSO",0.7893
same,"p-S6K(T389)/S6K, Mean","mTORC1 [3]; ED Fig. 7c, AMPKa1/2 KO, 4h, relative to AMPKa1/2 KO DMSO",0.6235
same,"p-S6K(T389)/S6K, Mean","mTORC1 [3]; ED Fig. 7c, WT, 2h, relative to WT DMSO",0.7439
same,"p-S6K(T389)/S6K, Mean","mTORC1 [3]; ED Fig. 7c, WT, 4h, relative to WT DMSO",0.528
same,"p-S6K(T389)/S6K, Mean","mTORC1 [3]; ED Fig. 7h, DEPDC5+RagA/B KO, 2h, relative to DEPDC5+RagA/B KO DMSO",0.6252
same,"p-S6K(T389)/S6K, Mean","mTORC1 [3]; ED Fig. 7h, DEPDC5+RagA/B KO, 4h, relative to DEPDC5+RagA/B KO DMSO",0.4969
same,"p-S6K(T389)/S6K, Mean","mTORC1 [3]; ED Fig. 7h, WT, 2h, relative to WT DMSO",0.7136
same,"p-S6K(T389)/S6K, Mean","mTORC1 [3]; ED Fig. 7h, WT, 4h, relative to WT DMSO",0.5404
same,"p-Grb10(S476)/Grb10, Mean","mTORC1 [4]; ED Fig. 3e, relative to DMSO",0.6323
same,"p-TFEB(S211)/TFEB, Mean","mTORC1 [4]; ED Fig. 3f, relative to DMSO",0.6501
same,"p-4E-BP1(T37/46)/4E-BP1, Mean","mTORC1 [4]; ED Fig. 3g, relative to DMSO",0.1632
same,"p-S6K(T389)/S6K, Mean","mTORC1 [4]; ED Fig. 6b, relative to Luc",0.5038
same,mTORC1 activity towards Grb10 and TFEB (cerulenin: also 4E-BP1),mTORC1 [4]; [7],downregulates
same,"mTORC1 activity (phosphorylation of S6K, 4E-BP1, Grb10 and TFEB)","mTORC1 [4]; HEK293FT cells, Fasnall, cerulenin or siFASN",suppressed
same,"p-S6K(T389)/S6K, Mean","mTORC1 [4]; HEK293FT, 50 μM cerulenin 2h, DMSO = 1, n = 8, Fig. 2i",0.7401
same,"p-S6K(T389)/S6K, Mean","mTORC1 [4]; HEK293FT, 50 μM cerulenin 4h, DMSO = 1, n = 8, Fig. 2i",0.4346
same,"p-S6K(T389)/S6K, Mean","mTORC1 [4]; TSC1 KO HEK293FT, cerulenin 50 μM, 4 h, respective DMSO = 1, n = 3, Fig. 5p",0.4527
same,"p-S6K(T389)/S6K, Mean","mTORC1 [4]; WT HEK293FT, cerulenin 50 μM, 4 h, respective DMSO = 1, n = 3, Fig. 5p",0.3623
same,"p-AMPK(T172)/AMPK, Mean",AMPK; ED Fig. 5e,0.8121
same,"p-ACC1(S79)/ACC1, Mean",AMPK; ED Fig. 5f,1.111
same,"p-S6K(T389)/S6K, Mean",mTORC1 [5]; 2h,0.8743
same,"p-S6K(T389)/S6K, Mean",mTORC1 [5]; 4h,0.3448
same,mTORC1 activity in MEFs,"mTORC1 [5]; Fasnall 25 μM 30 min, cerulenin 50 μM 2 or 4 h",downregulates
same,stability and composition of mTORC1,mTORC1 [6],not affected
same,phosphorylation of Akt (mTORC2 substrate),mTORC2; [7],did not significantly alter
same,"p-AKT(S473)/AKT, Mean","mTORC2; cerulenin 50 μM, 4 h, DMSO = 1, n = 3, Fig. 3d",0.8351
